Test results: patent US6054598A, “Synthesis of 2-alkoxyestradiols” (Pharm-Eco Laboratories, Inc., priority 1998, dated 2000)
Read-outs that look alike come from different tables or passages of the source.

How the values were obtained:
[1] = test system: SN12--C renal cancer cells; experiment: NCI anticancer screen, cytotoxicity, SN12-C renal cancer cells; type: cell-based; details: Homo sapiens, SN12C, read-out: cytotoxicity GI50, Renal SN12-C
Source text: (§1) The effects of the analogs on cancer cell growth was investigated in the National Cancer Institute (NCI) Developmental Therapeutics Program's in vitro panel of approximately 55 cell lines (Grever et al., Seminars in Oncology 19:622 (1992), Alley et al., Cancer Research 48:589 (1988) and Montes et al., J. National Cancer Institute 83:757 (1991)).

[2] = test system: SF-539 central nervous system (CNS) cancer cells; experiment: NCI anticancer screen, cytotoxicity, SF-539 central nervous system (CNS) cancer cells; type: cell-based; details: Homo sapiens
Source text: as §1

[3] = test system: HCT-116 colon cancer cells; experiment: NCI anticancer screen, cytotoxicity, HCT-116 colon cancer cells; type: cell-based; details: Homo sapiens
Source text: as §1

[4] = test system: HOP-62 non-small-cell lung cancer cells; experiment: NCI anticancer screen, cytotoxicity, HOP-62 non-small-cell lung cancer cells; type: cell-based; details: Homo sapiens
Source text: as §1

[5] = test system: DU-145 prostate cancer cells; experiment: NCI anticancer screen, cytotoxicity, DU-145 prostate cancer cells; type: cell-based; details: Homo sapiens
Source text: as §1

UACC-62 melanoma cells = experiment: NCI anticancer screen, cytotoxicity, UACC-62 melanoma cells; type: cell-based; details: Homo sapiens
Source text: as §1

[6] = test system: OVCAR ovarian cancer cells; experiment: NCI anticancer screen, cytotoxicity, OVCAR ovarian cancer cells; type: cell-based; details: Homo sapiens, read-out: cytotoxicity GI50, Ovarian OVCAR
Source text: as §1

tubulin = experiment: Inhibition of polymerization of purified tubulin; type: biochemical, bovine; details: for IC50: extent of polymerization after 20 min incubation, 26° C., 350 nm, read-out: Inhibn of Tubulin Polymn IC50
Protocol: Electrophoretically homogeneous tubulin was purified from bovine brain as described previously (Hamel et al., Biochemistry 23:4173-4184 (1984)). Determination of IC50 values for the polymerization of purified tubulin was performed as described in D'Amato et al. Proc. Natl. Acad. Sci. U.S.A. 91:3964-3968 (1994). Tubulin was preincubated at 26° C. with varying compound concentrations, reaction mixtures were chilled on ice, GTP (required for the polymerization reaction) was added, and polymerization was followed at 26° C. by turbidimetry at 350 nm in Gilford recording spectrophotometers equipped with electronic temperature controllers. Four instruments were used, and two control reaction mixtures were present in each experiment. The extent of polymerization after a 20 min incubation was determined (the values for the two controls were usually within 5% of each other). IC50 values were determined graphically. […] Inhibition of colchicine binding to tubulin was performed as described previously (D. Amato et al., Proc. Natl. Acad. Sci. U.S.A. 91:3964-3968 (1994)). […] Incubation was for 30 min at 37° C.

[7] = test system: human cancer cell lines (approximately 55); experiment: NCI anticancer screen, in vitro panel of approximately 55 cell lines; type: cell-based; details: for GI50: read-out: cytotoxicity MGM (mean graph midpoint for all human cancer cell lines tested)
Source text: as §1

[8] = test system: MDA-MB-435 breast cancer cells; experiment: NCI anticancer screen, cytotoxicity, MDA-MB-435 breast cancer cells; type: cell-based; details: Homo sapiens
Source text: as §1

solid tumors = details: in mice; Fotsis et al., Nature 368:237 (1994); cited from earlier work
[9] = SF-539, read-out: cytotoxicity GI50, CNS SF-539
[10] = HCT-116, read-out: cytotoxicity GI50, Colon HCT-116
[11] = HOP-62, read-out: cytotoxicity GI50, Lung HOP-62
[12] = DU-145, read-out: cytotoxicity GI50, Prostate DU-145
[13] = UACC-62, read-out: cytotoxicity GI50, Melanoma UACC-62
[14] = MDA-MB-435, read-out: cytotoxicity GI50, Breast MDA-MB-435

CCOc1cc2c(cc1O)CC[C@@H]1[C@@H]2CC[C@]2(C)[C@@H](O)CC[C@@H]12 [Compound 10, 2-Ethoxyestra-1,3,5(10)-trien03,17β-diol]
GI50 [1]: 39 nM | GI50 [2, 9]: 14 nM | GI50 [3, 10]: 26 nM | GI50 [4, 11]: 18 nM | GI50 [5, 12]: 65 nM | GI50 (UACC-62 melanoma cells; [13]): 16 nM | GI50 [6]: 16 nM | activity on tubulin polymerization relative to 2-methoxy estradiol (1) (tubulin; compared with 2-methoxy estradiol (1)): over three times more active | IC50 (tubulin): 910 ± 500 nM | GI50 ([7]; Homo sapiens): 76 nM | activity against all the cell lines listed in Table 1 relative to 2-methoxy estradiol (1) ([7]; all the cell lines listed in Table 1, compared with 2-methoxy estradiol (1)): more active | GI50 [8, 14]: < 10 nM

COc1cc2c(cc1O)CC[C@@H]1[C@@H]2CC[C@]2(C)[C@@H](O)CC[C@@H]12 [Compound 1, 2-methoxy estradiol, reference compound]
GI50 ([1]; SN12-C, concentration corresponding to 50% growth inhibition): 950 nM | GI50 ([2]; SF-539, concentration corresponding to 50% growth inhibition, read-out: cytotoxicity GI50, CNS SF-539): 320 nM | GI50 ([3]; HCT-116, concentration corresponding to 50% growth inhibition, read-out: cytotoxicity GI50, Colon HCT-116): 470 nM | GI50 ([4]; HOP-62, concentration corresponding to 50% growth inhibition, read-out: cytotoxicity GI50, Lung HOP-62): 700 nM | GI50 ([5]; DU-145, concentration corresponding to 50% growth inhibition, read-out: cytotoxicity GI50, Prostate DU-145): 1800 nM | GI50 (UACC-62 melanoma cells; UACC-62, concentration corresponding to 50% growth inhibition, read-out: cytotoxicity GI50, Melanoma UACC-62): 360 nM | GI50 ([6]; OVCAR, concentration corresponding to 50% growth inhibition): 210 nM | IC50 (tubulin): 2900 ± 600 nM | GI50 ([7]; approximately 55 human cancer cell lines, GI50): 1300 nM | GI50 ([8]; MDA-MB-435, concentration corresponding to 50% growth inhibition, read-out: cytotoxicity GI50, Breast MDA-MB-435): 80 nM | apparent signs of toxicity at tumor growth inhibiting doses (solid tumors): no apparent signs of toxicity | inhibition of growth of solid tumors (solid tumors): inhibits their growth | inhibition of neovascularization of solid tumors (solid tumors): potent inhibitor of neovascularization of solid tumors

C[C@]12CC[C@@H]3c4cc(OCC(F)(F)F)c(O)cc4CC[C@H]3[C@@H]1CC[C@@H]2O [Compound 9, 2-(2',2',2'-Trifluoroethoxy)estra-1,3,5(10)-Trien-3,17β-Diol]
GI50 [1]: 4460 nM | GI50 [2, 9]: 1380 nM | GI50 [3, 10]: 3220 nM | GI50 [4, 11]: 11600 nM | GI50 [5, 12]: 7050 nM | GI50 (UACC-62 melanoma cells; [13]): 2320 nM | GI50 [6]: 460 nM | IC50 (tubulin): 1700 nM | GI50 ([7]; Homo sapiens): 2630 nM | GI50 [8, 14]: 280 nM
